18 molecules from PubChem BioAssay (NCI) can be followed below.

Several values for one entry are separate records, joined by “and”; a condition that tells them apart may be missing. Equal values may be shown once.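 Dose response: 5 concentrations. Exposure: 48 h. Format: 96-well plates. Endpoint: linear interpolation; highest concentration if not reached. GI50 marks 50% less growth. The concentration for full growth arrest is given as TGI.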

The subject of one test is COLO 205 colon. As to the kind of experiment: NCI anticancer screen, dose series, 48 h.
With `O=C(O)c1ccc(CN2CCC(CN[C@@H]3C[C@H]3c3ccccc3)CC2)cc1`, the GI50 is greater than 100 µM and the TGI is greater than 100 µM.

`O=C1NC(=S)S/C1=C/c1ccc2c(c1)OCO2`: the GI50 was greater than 100 µM and the TGI was greater than 100 µM.

For the molecule `O=C1C=CC(=O)C2C1C1(Cl)C(Cl)=C(Cl)C2(Cl)C1(Cl)Cl` (centres undefined), the GI50 is 11.5 µM and the TGI is 27.2 µM.

For `C=CC(=O)N1CCC(Oc2cc3c(Nc4ccc(Cl)c(Cl)c4F)ncnc3cc2OC)CC1`, the GI50 was 4.26 µM and 3.52 µM; the TGI was 17.4 µM and > 10 µM.

Regarding `CC(=O)OC1OC([C@H]2c3cccc(O)c3C(=O)c3c(O)cc(C)cc32)C(O)C(O)C1O` (some centres undefined), the GI50 was 0.0421 µM.

For the molecule `CNC(=O)OCc1c(COC(=O)NC)c(-c2ccc(-c3ccccc3)cc2)n(C)c1C`, the TGI was 16.5 µM.

The molecule `COc1cccc2c1C(=N)c1c(O)c3c(c(O)c1C2=O)C[C@@](O)(C(C)=O)C[C@@H]3O[C@H]1C[C@H](N)[C@H](O)[C@H](C)O1` gave a TGI of 3.16 µM.

`Cc1cn(-c2cc(NC(=O)c3cccc(C#Cc4cccc5[nH]nc(N)c45)c3)cc(C(F)(F)F)c2)cn1`: the GI50 is 2.45 µM and the TGI was found to be 15.8 µM.

In the case of `CN(C)CCC(=O)N1C/C(=C\c2ccc(Cl)c(Cl)c2)C(=O)/C(=C/c2ccc(Cl)c(Cl)c2)C1`, the TGI is 0.636 µM.

Another test relates to HL-60(TB) leukemia. As to the kind of experiment: NCI anticancer screen, dose series, 48 h.
As to `C=C(C)[C@@H]1CC[C@]2(COCCCN)CC[C@]3(C)[C@H](CC[C@@H]4[C@@](C)(CCCNCCCN)[C@H](C(=C)C)CC[C@]43C)[C@@H]12`, the GI50 was 1.64 µM and the TGI was determined as 3.47 µM.

The molecule `O=C(O)CSCCc1ccccc1` had a TGI of 1.98 µM.

As to `CCOC1C(Br)Cn2c(=O)c3cc4ccccc4cc3c(=O)n2C1C` (centres undefined), the TGI is greater than 100 µM.

Turning to `COc1ccc(C(C#N)NC23CC4CC(CC(C4)C2)C3)cc1` (centres undefined), the TGI is greater than 100 µM.

`COc1ccc(NC(=O)CC/C(CC(=O)c2ccco2)=N/NC(=O)C(N)=O)cc1` had a TGI greater than 100 µM.

In turn, `CC(C)(C)c1cc([N+](=O)[O-])cc([N+](=O)[O-])c1O` registered a TGI greater than 10 µM.

`Cc1cc(N(CC(C)Br)CC(C)Br)ccc1N=Nc1ccccc1C(=O)O` (centres undefined) returned a TGI of 36.6 µM.

Consider `CCN(CC)CCCC(CCl)Nc1ccnc2cc(Cl)ccc12` (centres undefined), for which the GI50 is 15.5 µM and 7.99 µM; the TGI is 72.8 µM and > 31.6 µM.

With `COc1ccc2c(c1)C(=O)/C(=C/c1cccc(OCC(=O)c3ccccc3)c1)O2`, the GI50 is 1.39 µM and the TGI came to 3.23 µM.

As to `O=C(O)c1ccc(CN2CCC(CN[C@@H]3C[C@H]3c3ccccc3)CC2)cc1`, the GI50 is greater than 100 µM and the TGI is greater than 100 µM.

For `O=C1NC(=S)S/C1=C/c1ccc2c(c1)OCO2`, the GI50 is 77.3 µM and the TGI is greater than 100 µM.

`O=C1C=CC(=O)C2C1C1(Cl)C(Cl)=C(Cl)C2(Cl)C1(Cl)Cl` (centres undefined): the GI50 was 2.71 µM and the TGI came to 11 µM.

Consider `C=CC(=O)N1CCC(Oc2cc3c(Nc4ccc(Cl)c(Cl)c4F)ncnc3cc2OC)CC1`, for which the GI50 was 8.97 µM and 3.77 µM; the TGI was 48.5 µM and > 10 µM.

In the case of `CC(=O)OC1OC([C@H]2c3cccc(O)c3C(=O)c3c(O)cc(C)cc32)C(O)C(O)C1O` (some centres undefined), the GI50 was 0.0157 µM and the TGI was 0.0472 µM.

`CNC(=O)OCc1c(COC(=O)NC)c(-c2ccc(-c3ccccc3)cc2)n(C)c1C`: the TGI was 18.1 µM.

With `COc1cccc2c1C(=N)c1c(O)c3c(c(O)c1C2=O)C[C@@](O)(C(C)=O)C[C@@H]3O[C@H]1C[C@H](N)[C@H](O)[C@H](C)O1`, the GI50 is 0.112 µM and the TGI came out at 2.36 µM.

As for `Cc1cn(-c2cc(NC(=O)c3cccc(C#Cc4cccc5[nH]nc(N)c45)c3)cc(C(F)(F)F)c2)cn1`, the GI50 is 3.22 µM and the TGI worked out at 32.6 µM.

For the molecule `CN(C)CCC(=O)N1C/C(=C\c2ccc(Cl)c(Cl)c2)C(=O)/C(=C/c2ccc(Cl)c(Cl)c2)C1`, the TGI was 0.162 µM.

The subject of the next test is NCI-H23 lung. Nature of the test: NCI anticancer screen, dose series, 48 h.
As to `C=C(C)[C@@H]1CC[C@]2(COCCCN)CC[C@]3(C)[C@H](CC[C@@H]4[C@@](C)(CCCNCCCN)[C@H](C(=C)C)CC[C@]43C)[C@@H]12`, the GI50 is 1.79 µM and the TGI worked out at 3.63 µM.

Turning to `O=C(O)CSCCc1ccccc1`, the TGI is greater than 100 µM.

For `CCOC1C(Br)Cn2c(=O)c3cc4ccccc4cc3c(=O)n2C1C` (centres undefined), the TGI was greater than 100 µM.

As for `COc1ccc(C(C#N)NC23CC4CC(CC(C4)C2)C3)cc1` (centres undefined), the TGI is greater than 100 µM.

Consider `COc1ccc(NC(=O)CC/C(CC(=O)c2ccco2)=N/NC(=O)C(N)=O)cc1`, for which the TGI is greater than 100 µM.

Consider `CC(C)(C)c1cc([N+](=O)[O-])cc([N+](=O)[O-])c1O`, for which the TGI is greater than 10 µM.

In turn, `Cc1cc(N(CC(C)Br)CC(C)Br)ccc1N=Nc1ccccc1C(=O)O` (centres undefined) displayed a TGI of 18.1 µM.

For the molecule `CCN(CC)CCCC(CCl)Nc1ccnc2cc(Cl)ccc12` (centres undefined), the GI50 was 17.9 µM and 22.1 µM; the TGI was 38.3 µM and > 60.2 µM.

On to `COc1ccc2c(c1)C(=O)/C(=C/c1cccc(OCC(=O)c3ccccc3)c1)O2`, for which the GI50 is 4.37 µM and the TGI was 15.8 µM.

As to `O=C(O)c1ccc(CN2CCC(CN[C@@H]3C[C@H]3c3ccccc3)CC2)cc1`, the GI50 was greater than 100 µM and the TGI was greater than 100 µM.

On to `O=C1NC(=S)S/C1=C/c1ccc2c(c1)OCO2`, for which the GI50 is greater than 100 µM and the TGI was greater than 100 µM.

`O=C1C=CC(=O)C2C1C1(Cl)C(Cl)=C(Cl)C2(Cl)C1(Cl)Cl` (centres undefined): the GI50 is 4.85 µM and the TGI was found to be 26.3 µM.

Turning to `C=CC(=O)N1CCC(Oc2cc3c(Nc4ccc(Cl)c(Cl)c4F)ncnc3cc2OC)CC1`, the GI50 is 4.52 µM and 3.18 µM; the TGI is 21.7 µM and > 10 µM.

For `CC(=O)OC1OC([C@H]2c3cccc(O)c3C(=O)c3c(O)cc(C)cc32)C(O)C(O)C1O` (some centres undefined), the GI50 is less than 0.0161 µM.

Take `CNC(=O)OCc1c(COC(=O)NC)c(-c2ccc(-c3ccccc3)cc2)n(C)c1C`: the TGI was found to be 10.2 µM.

Consider `COc1cccc2c1C(=N)c1c(O)c3c(c(O)c1C2=O)C[C@@](O)(C(C)=O)C[C@@H]3O[C@H]1C[C@H](N)[C@H](O)[C@H](C)O1`, for which the GI50 is 0.233 µM and the TGI was found to be 1.16 µM.

Take `Cc1cn(-c2cc(NC(=O)c3cccc(C#Cc4cccc5[nH]nc(N)c45)c3)cc(C(F)(F)F)c2)cn1`: the GI50 was 4.61 µM and the TGI was greater than 100 µM.

Molecule `CN(C)CCC(=O)N1C/C(=C\c2ccc(Cl)c(Cl)c2)C(=O)/C(=C/c2ccc(Cl)c(Cl)c2)C1` came in with a TGI of 1.5 µM.
